Structures are written as SMILES. Where “and” joins values, the source holds several entries; their conditions need not be identical. Equal entries are not always repeated. Toxic doses and inconclusive results are not listed.

For this assay, the system named is BDF1 mice, P388 leukemia ip, median survival T/C. In words: NCI In Vivo Anticancer Drug Screen. Data for tumor model P388 Leukemia (intraperitoneal) in B6D2F1 (BDF1) mice. As to conditions: endpoint: median survival time, higher = longer survival. The method, boiled down: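 Reported as T/C, where T is the survival measurement in dosed animals and C the same measurement in vehicle controls.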

Where [1] appears, read: dose: 50.0 mg/kg/injection, schedule: Q01DX009 (ip), vehicle: saline with Tween-80.
The mark [2] stands for this setting: dose: 200.0 mg/kg/injection, schedule: Q01DX009 (ip), vehicle: saline with Tween-80.
Setting [3] is: dose: 100.0 mg/kg/injection, schedule: Q04DX003 (ip), vehicle: saline.
[4] abbreviates: dose: 200.0 mg/kg/injection, schedule: Q04DX003 (ip), vehicle: saline.
The mark [5] stands for this setting: dose: 400.0 mg/kg/injection, schedule: Q04DX003 (ip), vehicle: saline.
The mark [6] stands for this setting: dose: 100.0 mg/kg/injection, schedule: Q01DX009 (ip), vehicle: saline with Tween-80.
[7] abbreviates: dose: 25.0 mg/kg/injection, schedule: Q01DX009 (ip), vehicle: saline.
Where [8] appears, read: dose: 50.0 mg/kg/injection, schedule: Q01DX009 (ip), vehicle: saline.
[9] abbreviates: dose: 100.0 mg/kg/injection, schedule: Q04DX003 (ip), vehicle: Klucel (hydroxypropylcellulose) (HPC).
Setting [10] is: dose: 200.0 mg/kg/injection, schedule: Q04DX003 (ip), vehicle: Klucel (hydroxypropylcellulose) (HPC).
[11] abbreviates: dose: 400.0 mg/kg/injection, schedule: Q04DX003 (ip), vehicle: Klucel (hydroxypropylcellulose) (HPC).
The mark [12] stands for this setting: dose: 100.0 mg/kg/injection, schedule: Q04DX003 (ip), vehicle: saline with Tween-80.
Where [13] appears, read: dose: 200.0 mg/kg/injection, schedule: Q04DX003 (ip), vehicle: saline with Tween-80.
Setting [14] is: dose: 400.0 mg/kg/injection, schedule: Q04DX003 (ip), vehicle: saline with Tween-80.

Consider `CC(CCC/C=C/CCCN(C)C(=N)N)CC(C)C1OC(=O)C(C)C(O)/C=C/C(C)C(O)C(C)C(O)C(C)C(O)CCCC(O)CC2(O)OC(CC(OC(=O)CC(=O)O)CC(O)CC(O)C(C)C(O)/C=C/C=C/C1C)CC(O)C2O` (stereo unspecified), for which the T/C was 124 % of control (dose: 1.8 mg/kg/injection, schedule: Q01DX009 (ip), vehicle: saline with Tween-80); 90 % of control (dose: 1.82 mg/kg/injection, schedule: Q04DX003 (ip), vehicle: saline); 109 % of control (dose: 2.5 mg/kg/injection, schedule: Q01DX001 (ip), vehicle: saline); 116 % of control (dose: 3.65 mg/kg/injection, schedule: Q01DX009 (ip), vehicle: saline with Tween-80); 109 % of control (dose: 3.65 mg/kg/injection, schedule: Q04DX003 (ip), vehicle: saline); 100 % of control (dose: 5.0 mg/kg/injection, schedule: Q01DX001 (ip), vehicle: saline). Besides, the T/C (dose: 7.3 mg/kg/injection, schedule: Q01DX009 (ip), vehicle: saline with Tween-80) is 104 % of control; the T/C (dose: 7.3 mg/kg/injection, schedule: Q04DX003 (ip), vehicle: saline) is 104 % of control; the T/C (dose: 10.0 mg/kg/injection, schedule: Q01DX001 (ip), vehicle: saline) is 109 % of control; the T/C (dose: 10.0 mg/kg/injection, schedule: Q04DX003 (ip), vehicle: saline) was 100 % of control.
With `CC(NC=O)C(=O)NC(CC(=O)O)C(=O)O` (stereo unspecified), the T/C (dose: 50.0 mg/kg/injection, schedule: Q01DX005 (ip), vehicle: saline) was 95 % of control; the T/C (dose: 100.0 mg/kg/injection, schedule: Q01DX005 (ip), vehicle: saline) was 93 % of control; the T/C (dose: 200.0 mg/kg/injection, schedule: Q01DX005 (ip), vehicle: saline) is 89 % of control.
For the molecule `O=C1OC(=Nc2cccc([N+](=O)[O-])c2)c2ccccc21`, the T/C was 150 % of control under setting [1] and 97 % of control under setting [2].
As for `CCCN(CCC)CCCOC(=O)c1ccc([N+](=O)[O-])cc1`, the T/C was 100 % of control (dose: 50.0 mg/kg/injection, schedule: Q01DX001 (ip), vehicle: saline); 100 % of control (dose: 100.0 mg/kg/injection, schedule: Q01DX001 (ip), vehicle: saline); 100 % of control (dose: 200.0 mg/kg/injection, schedule: Q01DX001 (ip), vehicle: saline).
Take `CC(=O)O/C(C#N)=C1\CCCC\C1=C(\C#N)OC(C)=O`: the T/C (dose: 25.0 mg/kg/injection, schedule: Q01DX001 (ip), vehicle: saline with Tween-80) is 103 % of control.
As for `COc1cc2c(c(OC)c1OC)C(=O)/C(=C\c1ccccc1)O2`, the T/C under setting [2] was 96 % of control.
On to `CCOC(=O)CCSCC(C)(C)C(=O)OCC`, for which the T/C under setting [3] is 90 % of control, the T/C under setting [4] was 100 % of control and the T/C under setting [5] was 95 % of control.
On to `COc1cc(C=O)cc(O)c1O`, for which the T/C was 95 % of control (dose: 100.0 mg/kg/injection, schedule: Q01DX009 (ip), vehicle: saline sonified); 91 % of control (dose: 176.0 mg/kg/injection, schedule: Q01DX009 (ip), vehicle: saline sonified); 120 % of control (dose: 200.0 mg/kg/injection, schedule: Q01DX009 (ip), vehicle: saline sonified); 104 % of control (dose: 264.0 mg/kg/injection, schedule: Q01DX009 (ip), vehicle: saline sonified).
Turning to `Cc1ccccc1OCCCCCl`, the T/C is 115 % of control under setting [6]; 107 % of control under setting [2]; 115 % of control (dose: 400.0 mg/kg/injection, schedule: Q01DX009 (ip), vehicle: saline with Tween-80).
On to `Nc1ccccc1N`, for which the T/C runs as follows: (dose: 25.0 mg/kg/injection, schedule: Q01DX009 (ip), vehicle: saline with Tween-80) 92 % of control and 100 % of control; under setting [1], 100 % of control; under setting [2], 97 % of control.
As to `S=C1CCNCC1`, the T/C is, setting by setting: (dose: 12.5 mg/kg/injection, schedule: Q01DX009 (ip), vehicle: saline) 95 % of control; under setting [7], 86 % of control; under setting [8], 100 % of control.
With `CCOC(=O)/C=C\c1c(OC)nc2ccccn2c1=O` (tested in a mixture with another compound), the T/C runs as follows: (dose: 100.0 mg/kg/injection, schedule: Q01DX009 (ip), vehicle: Klucel (hydroxypropylcellulose) (HPC)) 116 % of control; under setting [9], 122 % of control; (dose: 200.0 mg/kg/injection, schedule: Q01DX009 (ip), vehicle: Klucel (hydroxypropylcellulose) (HPC)) 121 % of control; under setting [10], 109 % of control; (dose: 400.0 mg/kg/injection, schedule: Q01DX009 (ip), vehicle: Klucel (hydroxypropylcellulose) (HPC)) 111 % of control; under setting [11], 113 % of control.
Consider `Cc1cc(C)c(-c2c(C)cc(C)c(C(=O)c3ccc([N+](=O)[O-])cc3)c2C)c(C)c1C(=O)c1ccc([N+](=O)[O-])cc1`, for which the T/C reads like this: (dose: 3.0 mg/kg/injection, schedule: Q01DX009 (ip), vehicle: Klucel (hydroxypropylcellulose) (HPC)) 100 % of control; (dose: 6.0 mg/kg/injection, schedule: Q01DX009 (ip), vehicle: Klucel (hydroxypropylcellulose) (HPC)) 100 % of control; (dose: 12.0 mg/kg/injection, schedule: Q01DX009 (ip), vehicle: Klucel (hydroxypropylcellulose) (HPC)) 95 % of control; (dose: 50.0 mg/kg/injection, schedule: Q01DX009 (ip), vehicle: Klucel (hydroxypropylcellulose) (HPC)) 92 % of control; under setting [9], 95 % of control; under setting [10], 100 % of control. Also, the T/C under setting [11] was 100 % of control.
Consider `CC1(C)CC(=O)C(C(c2cccc(O)c2O)C2C(=O)CC(C)(C)CC2=O)C(=O)C1`, for which the T/C runs as follows: under setting [1], 123 % of control; under setting [6], 100 % of control; under setting [2], 91 % of control.
As for `COc1cc2cnccc2cc1O`, the T/C is, setting by setting: (dose: 6.25 mg/kg/injection, schedule: Q04DX003 (ip), vehicle: water) 97 % of control; (dose: 12.5 mg/kg/injection, schedule: Q04DX003 (ip), vehicle: water) 98 % of control; (dose: 25.0 mg/kg/injection, schedule: Q04DX003 (ip), vehicle: water) 118 % of control; (dose: 50.0 mg/kg/injection, schedule: Q04DX003 (ip), vehicle: water) 95 % of control; (dose: 100.0 mg/kg/injection, schedule: Q04DX003 (ip), vehicle: water) 98 % of control.
As to `Clc1ccc(/C=N\N=C\c2ccc(Cl)c(Cl)c2)cc1Cl`, the T/C by setting is: under setting [12], 105 % of control; under setting [13], 111 % of control; under setting [14], 111 % of control.
Take `CCOC(=O)C(=CN1CCCCCC1)C(=O)OCC`: the T/C by setting is: under setting [12], 109 % of control; under setting [13], 109 % of control; under setting [14], 113 % of control.
With `CC(O)(c1ccc(Br)cc1)C(c1ccccc1)c1ccccn1` (stereo unspecified), the T/C is, setting by setting: under setting [7], 104 % of control; under setting [8], 100 % of control; (dose: 100.0 mg/kg/injection, schedule: Q01DX009 (ip), vehicle: saline) 86 % of control; under setting [3], 111 % of control; (dose: 200.0 mg/kg/injection, schedule: Q01DX009 (ip), vehicle: saline) 111 % of control; under setting [4], 104 % of control. Moreover, the T/C was 101 % of control (dose: 400.0 mg/kg/injection, schedule: Q01DX009 (ip), vehicle: saline) and 109 % of control under setting [5].

(Values after PubChem BioAssay AID328 (DTP/NCI, 2004).)
